What was measured:
E. coli ΔtolC = test: microbe, parasite or virus in culture; type: cell-based; settings: small panel, Tables 1a/1b; no visual growth after approx. 16 h
Outline: (§1)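 Inoculum: 10^4-10^6 cfu/mL from overnight culture. Medium: cation-adjusted Müller-Hinton broth. Incubation: approx. 16 h, 30-37° C. Read-out: visual, MIC at no growth.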

[1] = tested on: E. coli WT-3 [gyrA(S83L,D87G)]; test: microbe, parasite or virus in culture; type: cell-based
Outline: as §1

P. aeruginosa ΔmexAB = test: microbe, parasite or virus in culture; type: cell-based; settings: efflux-deficient strain; small panel, Tables 1a/1b
Outline: as §1

E. faecalis ATCC-29212 = test: MIC, microbroth dilution susceptibility assay; type: cell-based; settings: large panel, Table 2a; TSB
Outline: as §1

S. aureus ATCC-29213 = test: MIC, microbroth dilution susceptibility assay; type: cell-based; settings: large panel, Table 2a
Outline: as §1

P. vulgaris DSM-2140 = test: MIC, microbroth dilution susceptibility assay; type: cell-based; settings: large panel, Table 2a
Outline: as §1

S. pneumoniae DSM-20566 = test: MIC, microbroth dilution susceptibility assay; type: cell-based; settings: large panel, Table 2a; TSB
Outline: as §1

C. freundii DSM-30039 = test: MIC, microbroth dilution susceptibility assay; type: cell-based; settings: large panel, Table 2a
Outline: as §1

E. coli WT = test: MIC, microbroth dilution susceptibility assay; type: cell-based
Outline: as §1

S. epidermidis DSM-28765 = test: MIC, microbroth dilution susceptibility assay; type: cell-based; settings: large panel, Table 2a
Outline: as §1

E. coli WT DSM-1116 = test: MIC, microbroth dilution susceptibility assay; type: cell-based; settings: small panel, Tables 1a/1b; no visual growth after approx. 16 h
Outline: as §1

P. mirabilis DSM-2140 = test: MIC, microbroth dilution susceptibility assay; type: cell-based; settings: large panel, Table 2a
Outline: as §1

A. baumannii DSM-30008 = test: MIC, microbroth dilution susceptibility assay; type: cell-based; settings: large panel, Table 2a
Outline: as §1

K. pneumoniae DSM-30104 = test: MIC, microbroth dilution susceptibility assay; type: cell-based; settings: large panel, Table 2a
Outline: as §1

P. aeruginosa WT PA14 = test: MIC, microbroth dilution susceptibility assay; type: cell-based; settings: small panel, Tables 1a/1b
Outline: as §1

P. aeruginosa DSM-24600 = test: MIC, microbroth dilution susceptibility assay; type: cell-based; settings: large panel, Table 2a
Outline: as §1

S. marcescens DSM-30121 = test: MIC, microbroth dilution susceptibility assay; type: cell-based; settings: large panel, Table 2a
Outline: as §1

E. cloacae DSM-30054 = test: MIC, microbroth dilution susceptibility assay; type: cell-based; settings: large panel, Table 2a
Outline: as §1

P. aeruginosa DSM-46316 = test: MIC, microbroth dilution susceptibility assay; type: cell-based; settings: large panel, Table 2a
Outline: as §1

S. aureus Newman = test: MIC, microbroth dilution susceptibility assay; type: cell-based; settings: small panel, Tables 1a/1b
Outline: as §1

E. aerogenes DSM-30053 = test: MIC, microbroth dilution susceptibility assay; type: cell-based; settings: large panel, Table 2a
Outline: as §1

K. pneumoniae = test: MIC, microbroth dilution susceptibility assay (Table 2b); type: cell-based; settings: larger panel
Protocol: (§2) Cystobactamid derivatives synthesized were tested against relevant Gram negative and positive bacteria of clinical interest. Experimental procedures used for the biological characterization of the compounds are the same as previously described in WO 2016/082934.
(§3) Bacterial strains used in susceptibility assays (minimum inhibitory concentration, MIC) were either part of our internal strain collection or purchased from the German Collection of Microorganisms and Cell Cultures (Deutsche Sammlung von Mikroorganismen und Zellkulturen, DSMZ) and the American Type Culture Collection (ATCC). The susceptible E. coli strain (WT) and fluoroquinolone-resistant mutants E. coli WT-3 and WT-III were kindly provided by Prof Dr. P. Heisig, Pharmaceutical Biology and Microbiology, University of Hamburg, Germany. The efflux-deficient strain P. aeruginosa ΔmexAB was kindly provided by Prof Dr. S. Häußler, Institute for Molecular Bacteriology, TWINCORE, Hannover, Germany. All compounds were prepared as DMSO stocks and MIC values were determined in standard microbroth dilution assays in 96-well MTPs as described in Baumann et al., Angew Chem Int Ed Engl. 2014; 53(52):14605-9. In brief, overnight cultures of bacteria were diluted in either tryptic soy broth (TSB: 1.7% peptone casein, 0.3% peptone soymeal, 0.25% glucose, 0.5% NaCl, 0.25% K2HPO4; pH 7.3; S. pneumoniae and E. faecalis) or cation-adjusted Müller-Hinton Broth (BBL™, BD; all other bacteria) and adjusted to 10^4-10^6 cfu/mL. Bacteria were grown in the presence of the derivatives in serial dilution for approx. 16 h at 30-37° C. MIC values were determined and were defined as the antibiotic concentration at which no visual growth of bacteria was observed.

S. marcescens = test: as above; type: cell-based; settings: larger panel
Protocol: as §2, §3

E. cloacae = test: as above; type: cell-based; settings: larger panel
Protocol: as §2, §3

A. baumannii = test: as above; type: cell-based; settings: larger panel
Protocol: as §2, §3

C. freundii = test: as above; type: cell-based; settings: larger panel
Protocol: as §2, §3

E. aerogenes = test: as above; type: cell-based; settings: larger panel
Protocol: as §2, §3

P. aeruginosa ESBL 1 = test: as above; type: cell-based; settings: larger panel
Protocol: as §2, §3

P. aeruginosa ESBL 2 = test: as above; type: cell-based; settings: larger panel
Protocol: as §2, §3

E. faecalis = test: as above; type: cell-based; settings: larger panel
Protocol: as §2, §3

P. mirabilis = test: as above; type: cell-based; settings: larger panel
Protocol: as §2, §3

S. epidermidis = test: as above; type: cell-based; settings: larger panel
Protocol: as §2, §3

P. vulgaris = test: as above; type: cell-based; settings: larger panel
Protocol: as §2, §3

E. coli gyrase = molecular target: T1, E. coli gyrase (Escherichia coli, UniProt P0AES4+P0AES6); test: E. coli gyrase supercoiling (sc) assay; type: biochemical; settings: supercoiling assay kit, agarose gel quantification; read-out: Ec gyrase sc IC50
T1 construct: purchased Inspiralis
Protocol: The target activity on E. coli gyrase was assessed as described in Baumann et al., Angew Chem Int Ed Engl. 2014; 53(52):14605-9 using a commercial supercoiling (sc) assay kit from Inspiralis according to the manufacturer's instructions. The samples were separated on 0.8% (w/v) agarose gels and relaxed and supercoiled plasmid was visualized by ethidium bromide staining. Half-inhibitory concentrations (IC50) were calculated after image analysis and quantification (ImageJ) based on sigmoidal curve fitting (OriginPro).

[2] = tested on: E. coli WT-III [marRΔ74bp]; type: cell-based; settings: fluoroquinolone-resistant mutant; Table 2a
Protocol: as §2, §3

CO[C@@H](C(N)=O)[C@H](NC(=O)c1ccc(NC(=O)c2ccc([N+](=O)[O-])cc2)cc1)C(=O)Nc1ccc(C(=O)Nc2ccc(C(=O)Nc3ccc(C(=O)O)cc3)c(O)c2OC(C)C)cc1 [Cys861-2, reference compound]
4 µg/mL: MIC P. aeruginosa ESBL 1 (P. aeruginosa ESBL 1)
1 µg/mL: MIC E. faecalis ATCC-29212 (E. faecalis ATCC-29212) | MIC P. aeruginosa DSM-24600 (P. aeruginosa DSM-24600) | MIC A. baumannii (A. baumannii) | MIC E. faecalis (E. faecalis)
0.25 µg/mL: MIC S. aureus ATCC-29213 (S. aureus ATCC-29213) | MIC P. vulgaris DSM-2140 (P. vulgaris DSM-2140) | MIC P. vulgaris (P. vulgaris)
2 µg/mL: MIC P. aeruginosa WT PA14 (P. aeruginosa WT PA14) | MIC P. aeruginosa DSM-46316 (P. aeruginosa DSM-46316) | MIC P. aeruginosa ESBL 2 (P. aeruginosa ESBL 2)
0.06 µg/mL: MIC S. pneumoniae DSM-20566 (S. pneumoniae DSM-20566) | MIC C. freundii DSM-30039 (C. freundii DSM-30039) | MIC E. coli WT (E. coli WT; larger panel, Table 2b)
220 nM: IC50 (E. coli gyrase)
0.13 µg/mL: MIC E. coli WT (E. coli WT; large panel, Table 2a)
32 µg/mL: MIC P. mirabilis (P. mirabilis)
0.125 µg/mL: MIC E. coli ΔtolC (E. coli ΔtolC) | MIC E. coli WT DSM-1116 (E. coli WT DSM-1116) | MIC C. freundii (C. freundii)
>64 µg/mL: MIC P. mirabilis DSM-2140 (P. mirabilis DSM-2140) | MIC K. pneumoniae DSM-30104 (K. pneumoniae DSM-30104) | MIC E. aerogenes DSM-30053 (E. aerogenes DSM-30053) | MIC K. pneumoniae (K. pneumoniae) | MIC S. marcescens (S. marcescens) | MIC E. cloacae (E. cloacae) | MIC E. aerogenes (E. aerogenes)
64 µg/mL: MIC S. marcescens DSM-30121 (S. marcescens DSM-30121) | MIC E. cloacae DSM-30054 (E. cloacae DSM-30054)
0.5 µg/mL: MIC E. coli WT-3 [gyrA(S83L, D87G)] ([1]; fluoroquinolone-resistant mutant, Table 2a) | MIC E. coli WT-3 [gyrA(S83L, D87G)] ([1]; larger panel, Table 2b) | MIC P. aeruginosa ΔmexAB (P. aeruginosa ΔmexAB) | MIC S. epidermidis DSM-28765 (S. epidermidis DSM-28765) | MIC A. baumannii DSM-30008 (A. baumannii DSM-30008) | MIC S. aureus Newman (S. aureus Newman) | MIC S. epidermidis (S. epidermidis) | MIC E. coli WT-III [marRΔ74bp] [2]

— US11034648B2, “Cystobactamide derivatives” (priority 2017, dated 2021)
